Tested on: NCIES0808 cells
Experiment: Antibody microarray analysis of protein levels
Assay type: cell-based, human
Description: NCIES0808 cells were received from SBH in T165 flasks (×55). […] The cell morphology was examined closely under a microscope and the cells were noted to appear healthy with no visual signs of contamination or intracellular inclusions.
A 500 μM Q10 stock was made using the same protocol outlined for the PCR arrays. The media was exchanged in every flask with 50 μM and 100 μM Q10 media being placed into the appropriate flasks. The cells were incubated for 3 hr and 6 hr in the Q10 formulated media and the cells were harvested. Each flask was washed with 10 ml of ice cold PBS and trypsinized with 5 ml of trypsin-EDTA. The cells were harvested by gentle pipetting and the enzyme action was stopped by addition of 30 ml complete media. The cells were centrifuged at 1200 rpm for 5 minutes and media was aspirated from the tube leaving behind the cell pellet for protein extraction.
The proteins were extracted from the cells as per page 2; sub-category IA; of the manufacture's Product Information Sheet, Sigma®, Panarama® Antibody Microarray EPRESS Profiler725, cat#: XP725. The protein material from the whole cell lysates was conjugated with Cy3 and Cy5 dyes, GE Healthcare, product #: 25-8009-86 Cy3 and 25-8009-87 Cy5 as per the manufacturer's instructions outlined in the above mentioned product sheet sub-category IIA. […] The arrays were analyzed using a Fuji FLA-5100 UV scanner at the 532 nm for the Cy3 dye and 635 nm for the Cy5 dye. […]
The evaluation of changes in protein concentration due to the presence of Q10 was evaluated through the utilization of antibody microarray methods. […]
Once data sets were collected for all arrays, the data was scrutinized against three major parameters. […] An evaluation of the positive and negative Cy3/Cy5 data (included as controls on the chip) and a visual inspection of the spectral density for a given spot it was determined that and array data point with a spectral density less than 10 was approaching the background level and deemed statistically irrelevant and removed from the data series. […]

Coenzyme Q10 [CoQ10]
Expression of CBP/p300 (ES0808 cell line, compared to baseline): increase | Decrease in expression (value = protein), discussion list (NCIES 0808 cells in response to CoQ10): HDAC2 and HDAC4 and mTOR | FOXO1a expression (treatment with 100 μM CoQ10): up regulated
